Measured values: patent US20240368106A1, “HYDROXY AND ALKOXY COUMARINS AS MODULATORS OF POLRMT” (Pretzel Therapeutics, Inc., priority 2021, published 2024)

target: POLRMT (Homo sapiens (Human), UniProt O00411); assay: homogeneous TR-FRET assay of mitochondrial transcription (inhibition of POLRMT); type: biochemical; details: 7.5 nM POLRMT, 15 nM TFB2M, 30 nM TFAM, 0.5 nM DNA template, 500 μM NTPs, 37° C., 60 minutes
Experimental: The inhibitory activity of the compounds of the present invention against POLRMT were determined by assays based on Bergbrede, T., et al., “An adaptable high-throughput technology enabling the identification of specific transcription modulators,” SLAC Discov., 22, 378-386 (2017).
The ability of some compounds of the present invention to inhibit POLRMT were determined in a homogeneous TR-FRET Assay using high-throughput screening in a 384-well plate format. This method is used to monitor the activity of mitochondrial transcription through measurement of its product, a 407 bp long RNA transcript. Detection of the product is facilitated by hybridization of two DNA-oligonucleotide probes to specific and adjacent sequences within the RNA product sequence. Upon annealing of the probes, two fluorophores are coupled directly to an acceptor nucleotide probe (ATT0647, 5′), or introduced via a coupled streptavidin with a biotinylated donor nucleotide probe (Europium cryptate) that is brought into sufficient proximity to serve as a fluorescence-donor-acceptor pair. Thus, a FRET signal at 665 nm is generated upon excitation at 340 nm.
Proteins used as transcription factors (POLRMT: NP_005026.3, TFAM: NP_003192.1, TFB2M: NP_071761.1) are diluted from their stocks to working concentrations of 1 μM, 20 μM and 4 μM respectively, in a dilution buffer containing 20 mM Tris-HCl (pH 8.0), 200 mM NaCl, 10% (v/v) glycerol, 1 mM Dithiothreitol (DTT), 0.5 mM EDTA.
DNA template is a pUC18 plasmid with the mitochondrial light strand promotor sequence (1-477) cloned between HindIII and BamHI sites. The DNA template is restriction linearized proximal to the promotor 3′-end (pUC-LSP). The reaction mixture (10 uL) containing 7.5 nM POLRMT, 15 nM of TFB2M, 30 nM of TFAM, 0.5 nM of DNA template and 500 μM nucleotide triphosphate mix (NTPs) in a reaction buffer (containing 10 mM Tris-HCl (pH 7.5), 10 mM MgCl2, 40 mM NaCl, 10 mM DTT, 0.005% (w/v) Tween-20, 160 units/ml Rnase inhibitor and 0.1 mg/mL BSA) are dispensed to compounds in microplates, using a Thermo Multidrop® dispenser, and incubated at 37° C. in a VWR INCU-Line incubator for 60 minutes after mixing. No nucleotide triphosphate mix is added to negative control samples. Microplates with compounds to be tested in the assay are prepared from 10 mM compound stocks in 100% DMSO, equal amounts of DMSO without any compound are added to positive control and negative control samples.
During the incubation, a mix of the detection reagents is prepared in a buffer such that the enzymatic reaction is terminated due to chelating of Mg-ions and increased ionic strength, containing 50 mM Tris-HCl (pH 7.5), 700 mM NaCl, 20 mM EDTA, and 0.010% (w/v) Tween-20. Europium-streptavidin is pre-incubated with a 200-fold molar excess of a random sequence oligonucleotide to block unspecific binding of oligo, for two hours at ambient temperature in the dark. Afterwards, the blocked Europium-streptavidin is kept on ice until use.
At the end of the enzymatic reaction time, 5 μL detection oligo mix in the detection buffer is added, and assay plates are mixed and kept at ambient temperature for one hour, protected from light. The concentration of the Acceptor nucleotide oligo (e.g., ATTO647N-5′-[…]-3′) and Donor nucleotide oligo (e.g., bio-5′-AACACATCTCT(-bio)GCCAAACCCCA-bio-3′) in each assay well is 1 nM, and 3 nM, respectively.
After incubation with oligo mix, 5 μL of pre-blocked Europium-streptavidin reagent is dispensed to each assay well, assay plates are again mixed and kept at ambient temperature for one hour, protected from light.
The generated signal is measured with BMG Pherastar microtiter plate reader with a TRF light unit, using excitation at 340 nm, an integration time of 200 μs, and a delay time of 100 μs, before detection at 620 nm and 665 nm. The ratio of donor- and acceptor-fluorescence is used as a measure of the generated transcript product (i.e. enzymatic activity).

Chain of POLRMT (O00411 42-1230): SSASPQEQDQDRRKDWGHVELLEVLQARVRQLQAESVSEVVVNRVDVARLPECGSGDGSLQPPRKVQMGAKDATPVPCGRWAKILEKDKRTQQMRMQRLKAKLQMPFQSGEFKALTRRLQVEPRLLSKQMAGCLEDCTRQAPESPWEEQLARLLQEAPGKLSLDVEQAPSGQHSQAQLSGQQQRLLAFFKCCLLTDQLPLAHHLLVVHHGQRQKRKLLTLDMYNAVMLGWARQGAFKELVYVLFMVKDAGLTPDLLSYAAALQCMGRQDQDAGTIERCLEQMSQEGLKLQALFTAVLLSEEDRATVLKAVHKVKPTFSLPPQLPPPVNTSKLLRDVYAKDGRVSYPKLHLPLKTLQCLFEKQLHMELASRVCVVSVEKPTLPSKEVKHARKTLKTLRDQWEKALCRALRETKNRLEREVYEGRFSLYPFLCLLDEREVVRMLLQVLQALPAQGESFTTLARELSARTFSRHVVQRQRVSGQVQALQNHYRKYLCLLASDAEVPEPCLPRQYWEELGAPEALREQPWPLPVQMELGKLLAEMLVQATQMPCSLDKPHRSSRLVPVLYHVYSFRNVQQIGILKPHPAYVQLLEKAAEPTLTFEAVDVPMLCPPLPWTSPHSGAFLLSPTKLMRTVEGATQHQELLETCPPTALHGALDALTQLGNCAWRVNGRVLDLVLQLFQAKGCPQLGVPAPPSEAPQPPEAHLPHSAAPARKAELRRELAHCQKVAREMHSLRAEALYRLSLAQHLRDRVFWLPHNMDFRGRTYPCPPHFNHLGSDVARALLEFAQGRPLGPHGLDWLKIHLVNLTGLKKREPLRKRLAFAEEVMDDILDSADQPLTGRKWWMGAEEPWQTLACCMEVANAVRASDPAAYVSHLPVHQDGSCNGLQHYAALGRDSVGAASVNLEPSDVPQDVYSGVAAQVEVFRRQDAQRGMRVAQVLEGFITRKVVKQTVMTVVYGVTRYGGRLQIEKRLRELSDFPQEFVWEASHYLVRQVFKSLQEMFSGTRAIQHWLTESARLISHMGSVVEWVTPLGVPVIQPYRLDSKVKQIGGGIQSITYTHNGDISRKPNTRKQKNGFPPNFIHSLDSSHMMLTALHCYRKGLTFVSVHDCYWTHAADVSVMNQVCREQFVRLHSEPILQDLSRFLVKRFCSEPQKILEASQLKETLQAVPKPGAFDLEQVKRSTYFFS

IC50 [nM]	SMILES
500	Cc1ccccc1-c1cc(=O)oc2cc(OC3CCOCC3)ccc12 [Example 28, 7-((tetrahydro-2H-pyran-4-yl)oxy)-4-(o-tolyl)-2H-chromen-2-one]
90	CCCOc1ccc2c(-c3ccccc3C)cc(=O)oc2c1 [Example 02, 7-propoxy-4-(o-tolyl)-2H-chromen-2-one]
65000	Cc1cccc(C)c1-c1cc(=O)oc2cc(O[C@H](C)C(=O)N3CCS(=O)(=O)CC3)ccc12 [Example 112, (R)-4-(2,6-dimethylphenyl)-7-((1-(1,1-dioxidothiomorpholino)-1-oxopropan-2-yl)oxy)-2H-chromen-2-one]
300	Cc1ccccc1-c1cc(=O)oc2cc(OC(C)C(F)(F)F)ccc12 (stereo not shown) [Example 109, 4-(o-tolyl)-7-((1,1,1-trifluoropropan-2-yl)oxy)-2H-chromen-2-one]
100	Cc1ccccc1-c1cc(=O)oc2cc(OC(C)C)ccc12 [Example 05, 7-isopropoxy-4-(o-tolyl)-2H-chromen-2-one]
90000	Cc1ccccc1-c1cc(=O)oc2cc(O[C@H]3CCN(C)C3)ccc12 [Example 63, (S)-7-((1-methylpyrrolidin-3-yl)oxy)-4-(o-tolyl)-2H-chromen-2-one]
23000	CCCOc1ccc2c(-c3cnccc3C(F)(F)F)cc(=O)oc2c1 [Example 32, 7-propoxy-4-(4-(trifluoromethyl)pyridin-3-yl)-2H-chromen-2-one]
4000	CCCOc1ccc2c(-c3ccc(O)cc3C)cc(=O)oc2c1 [Example 34, 4-(4-hydroxy-2-methylphenyl)-7-propoxy-2H-chromen-2-one]
7000	CNC(=O)CCOc1ccc2c(-c3ccccc3C)cc(=O)oc2c1 [Example 12, N-methyl-3-((2-oxo-4-(o-tolyl)-2H-chromen-7-yl)oxy)propanamide]
200	COCC(Oc1ccc2c(-c3ccccc3C)cc(=O)oc2c1)C(=O)NCC(F)(F)F (single isomer, unassigned) [Example 83, 3-methoxy-2-((2-oxo-4-(o-tolyl)-2H-chromen-7-yl)oxy)-N-(2,2,2-trifluoroethyl)propanamide]
300	COCC(C)Oc1ccc2c(-c3ccccc3C)cc(=O)oc2c1 (racemic) [Example 25, 7-((1-methoxypropan-2-yl)oxy)-4-(o-tolyl)-2H-chromen-2-one]
1000	Cc1ccccc1-c1cc(=O)oc2cc(OC(CO)C(=O)O)ccc12 (stereo not shown) [Example 102, 3-hydroxy-2-((2-oxo-4-(o-tolyl)-2H-chromen-7-yl)oxy)propanoic acid]
4000	CCCOc1ccc2c(-c3ccccc3)cc(=O)oc2c1 [Example 113, 4-phenyl-7-propoxy-2H-chromen-2-one]
87000	Cc1cc(OC(C)C)cc2oc(=O)cc(-c3ccccc3)c12 [Example 23, 7-isopropoxy-5-methyl-4-phenyl-2H-chromen-2-one]
600	Cc1ccccc1-c1cc(=O)oc2cc(Oc3ccccc3)ccc12 [Example 06, 7-phenoxy-4-(o-tolyl)-2H-chromen-2-one]
2000	COc1ccc2c(-c3ccccc3C)cc(=O)oc2c1 [Example 04, 7-methoxy-4-(o-tolyl)-2H-chromen-2-one]
2000	COCC(Oc1ccc2c(-c3ccccc3Cl)cc(=O)oc2c1)C(=O)O (stereo not shown) [Example 84, 2-((4-(2-chlorophenyl)-2-oxo-2H-chromen-7-yl)oxy)-3-methoxypropanoic acid]

IC50 [nM]	SMILES
42000	Cc1ccccc1-c1cc(=O)oc2cc(O[C@@H]3CCN(C)C3)ccc12 [Example 66, (R)-7-((1-methylpyrrolidin-3-yl)oxy)-4-(o-tolyl)-2H-chromen-2-one]
900	Cc1ccccc1-c1cc(=O)oc2cc(OCC3CCCCO3)ccc12 (single isomer, unassigned) [Example 39, 7-((tetrahydro-2H-pyran-2-yl)methoxy)-4-(o-tolyl)-2H-chromen-2-one]
200	Cc1ccccc1-c1cc(=O)oc2cc(O[C@H](C)C(=O)N3CCS(=O)(=O)CC3)ccc12 [Example 111, (R)-7-((1-(1,1-dioxidothiomorpholino)-1-oxopropan-2-yl)oxy)-4-(o-tolyl)-2H-chromen-2-one]
50	Cc1ccccc1-c1cc(=O)oc2cc(OC(C)C#N)ccc12 (single isomer, unassigned) [Example 42, 2-((2-oxo-4-(o-tolyl)-2H-chromen-7-yl)oxy)propanenitrile]
700	COC[C@@H](Oc1ccc2c(-c3ccccc3C)cc(=O)oc2c1)C(N)=O [Example 68, (R)-3-methoxy-2-((2-oxo-4-(o-tolyl)-2H-chromen-7-yl)oxy)propenamide]
400	CNC(=O)C(COC)Oc1ccc2c(-c3ccccc3Cl)cc(=O)oc2c1 (single isomer, unassigned) [Example 92, 2-((4-(2-chlorophenyl)-2-oxo-2H-chromen-7-yl)oxy)-3-methoxy-N-methylpropanamide]
10000	COC[C@H](Oc1ccc2c(-c3ccccc3C)cc(=O)oc2c1)C(=O)N(C)C [Example 72, (S)-3-methoxy-N,N-dimethyl-2-((2-oxo-4-(o-tolyl)-2H-chromen-7-yl)oxy)propenamide]
14000	CNC(=O)C(COC)Oc1ccc2c(-c3ccccc3Cl)cc(=O)oc2c1 (single isomer, unassigned) [Example 91, 2-((4-(2-chlorophenyl)-2-oxo-2H-chromen-7-yl)oxy)-3-methoxy-N-methylpropanamide]
2000	COCC(Oc1ccc2c(-c3ccc(F)cc3Cl)cc(=O)oc2c1)C(N)=O (single isomer, unassigned) [Example 75, 2-((4-(2-chloro-4-fluorophenyl)-2-oxo-2H-chromen-7-yl)oxy)-3-methoxypropanamide]
16000	Cc1ccccc1-c1cc(=O)oc2cc(O[C@@H](CO)C(=O)O)ccc12 [Example 103, (S)-3-hydroxy-2-((2-oxo-4-(o-tolyl)-2H-chromen-7-yl)oxy)propanoic acid]
94000	Cc1ccccc1-c1cc(=O)oc2cc(OCCN(C)C)ccc12 [Example 08, 7-(2-(dimethylamino)ethoxy)-4-(o-tolyl)-2H-chromen-2-one]
17000	CCCOc1ccc2c(-c3c(C)noc3C)cc(=O)oc2c1 [Example 52, 4-(3,5-dimethylisoxazol-4-yl)-7-propoxy-2H-chromen-2-one]
5000	CNC(=O)C(CO)Oc1ccc2c(-c3ccccc3C)cc(=O)oc2c1 (single isomer, unassigned) [Example 97, 3-hydroxy-N-methyl-2-[4-(o-tolyl)-2-oxo-chromen-7-yl]oxy-propanamide]
17000	CNC(=O)[C@H](COC)Oc1ccc2c(-c3ccccc3C)cc(=O)oc2c1 [Example 69, (S)-3-methoxy-N-methyl-2-((2-oxo-4-(o-tolyl)-2H-chromen-7-yl)oxy)propenamide]
28000	CC(=O)N1CC[C@H](Oc2ccc3c(-c4ccccc4C)cc(=O)oc3c2)C1 [Example 61, (S)-7-((1-acetylpyrrolidin-3-yl)oxy)-4-(o-tolyl)-2H-chromen-2-one]
600	COCC(C)Oc1ccc2c(-c3ccccc3C)cc(=O)oc2c1 (single isomer, unassigned) [Example 27, 7-((1-methoxypropan-2-yl)oxy)-4-(o-tolyl)-2H-chromen-2-one]

SMILES	IC50 [nM]
CCOCC(Oc1ccc2c(-c3ccccc3C)cc(=O)oc2c1)C(N)=O (stereo not shown) [Example 100]	900
